Measurements as given in patent US20200345725A1, “Methods and Compositions for Treating Cancer” (Omeros Corporation, priority 2019, published 2020).
Marks after values point to notes of the source that are not given here.

Tested on: human PBMCs
Experiment: Th1 cytokines in supernatants of stimulated human PBMC, GPR174 inhibitor with adenosine pathway inhibitors (Examples 15, 18-22)
Type: cell-based
Conditions: for IFN-γ fold increase (FIG. 44): Example 15; for IFN-γ, ratio relative to vehicle control (Veh column) / IL-2, ratio relative to vehicle control (Veh column) / TNF, ratio relative to vehicle control (Veh column): donor 3, no MRS, Cmpd 10 1, ZM 0.1, PBF 0.1, SCH 0.2 μM, ADA 0.75 μg/mL
How it was run: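 Human donor PBMCs (1×10^6 cells/well) were stimulated with 1 µg/mL anti-CD3 (UCHT1) plus 0.1 µg/mL anti-CD28 (CD28.2) for 24 h with test agents. IFN-γ, IL-2, TNF and GM-CSF in supernatants were measured by ELISA, Legendplex or MSD. Fold changes were compared by one-way ANOVA with Tukey correction.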

[1] = 12 donors, Cmpd 10 1-2 μM, ZM 0.2-1 μM
[2] = 12 donors, Cmpd 10 1-2 μM, ZM 0.2-1 μM, 24 h
[3] = donor 1, 24 h, Cmp 10 2 μM alone
[4] = donor 1, 24 h, Cmp 10 2 μM alone, listed as Cmp 10
[5] = donor 1, SCH-58261 0.2 μM, alone (label SCH) or with Cmp 10 2 μM (label Cmp 10)
[6] = donor 1, SCH-58261 0.6 μM, alone (label SCH) or with Cmp 10 2 μM (label Cmp 10)
[7] = donor 1, SCH-58261 2 μM, alone (label SCH) or with Cmp 10 2 μM (label Cmp 10)
[8] = donor 2, Cmpd 10 1 μM alone, listed as Cmpd 10
[9] = donor 2, PBF-509 0.1 μM, alone (label PBF) or with Cmpd 10 1 μM (label Cmpd 10)
[10] = donor 2, PBF-509 0.1 μM, alone (label PBF) or with Cmpd 10 1 μM (label Cmpd 10), listed as Cmpd 10
[11] = donor 2, ZM-241385 0.2 μM, alone (label ZM) or with Cmpd 10 1 μM (label Cmpd 10)
[12] = donor 2, ZM-241385 0.2 μM, alone (label ZM) or with Cmpd 10 1 μM (label Cmpd 10), listed as Cmpd 10
[13] = donor 3, MRS-1754 1 μM added to the agent(s) of the label, label MRS = MRS alone

For `CC1CCN(c2cc(N3CCN(S(=O)(=O)c4ccccc4)CC3)c([N+](=O)[O-])cc2F)CC1` [compound 10], the “GM-CSF fold-change (FC) vs ZM alone” value (9 donors, Cmpd 10 1-2 μM, ZM 0.2-1 μM) was 1.1 fold, the “GM-CSF mean fold-change (FC) vs vehicle” value (9 donors, Cmpd 10 1-2 μM, ZM 0.2-1 μM, 24 h) was 1.4 fold and the “IFN-γ fold-change (FC) vs ZM alone” value [1] was 1.3 fold. For the same molecule, the “IL-2 fold-change (FC) vs ZM alone” value [1] was 1.2 fold, the “TNF fold-change (FC) vs ZM alone” value [1] was 1.3 fold and the “IFN-γ mean fold-change (FC) vs vehicle” value [2] was 2.8 fold. For the same molecule, the “IL-2 mean fold-change (FC) vs vehicle” value [2] was 1.7 fold, the “TNF mean fold-change (FC) vs vehicle” value [2] was 2.7 fold and the “IFN-γ fold increase (FIG. 44)” value (24 h, ZM241385 1 μM, alone (label ZM241385) or with compound 10 3 μM (label compound 10)) was 9.3 fold. The “IFN-γ fold increase (FIG. 44)” value (24 h, ZM241385 10 μM, alone (label ZM241385) or with compound 10 3 μM (label compound 10)) was 17.1 fold, the “IFN-γ fold increase (FIG. 44)” value (24 h, compound 10 3 μM alone) was 2.3 fold and the “IFN-γ fold-change relative to vehicle control” value [3] was 4.9 fold. For the same molecule, the “IL-2 fold-change relative to vehicle control” value [3] was “no effect”, the “TNF fold-change relative to vehicle control” value [3] was 4.2 fold and the “IFN-γ fold-change relative to vehicle control” value [4] was 4.9* fold. The “IL-2 fold-change relative to vehicle control” value [4] was 0.9 fold, the “TNF fold-change relative to vehicle control” value [4] was 4.2* fold and the “IFN-γ fold-change relative to vehicle control” value [5] was 11.8* fold. For the same molecule, the “IL-2 fold-change relative to vehicle control” value [5] was 1.5* fold, the “TNF fold-change relative to vehicle control” value [5] was 14.2* fold and the “IFN-γ fold-change relative to vehicle control” value [6] was 11.3* fold. The “IL-2 fold-change relative to vehicle control” value [6] was 1.4* fold, the “TNF fold-change relative to vehicle control” value [6] was 15.9* fold and the “IFN-γ fold-change relative to vehicle control” value [7] was 11.0* fold. The “IL-2 fold-change relative to vehicle control” value [7] was 1.4* fold, the “TNF fold-change relative to vehicle control” value [7] was 14.7* fold and the “IFN-γ fold-change relative to vehicle control” value (donor 2, Cmpd 10 1 μM alone) was 1.6 fold. For the same molecule, the “IL-2 fold-change relative to vehicle control” value (donor 2, Cmpd 10 1 μM alone) was 1.1 fold, the “TNF fold-change relative to vehicle control” value (donor 2, Cmpd 10 1 μM alone) was 1.5 fold and the “IFN-γ fold-change relative to vehicle control” value [8] was 1.6* fold. For the same molecule, the “TNF fold-change relative to vehicle control” value [8] was 1.5* fold, the “IFN-γ fold-change relative to vehicle control” value [9] was 3.5 fold and the “IL-2 fold-change relative to vehicle control” value [9] was 2.0 fold. The “TNF fold-change relative to vehicle control” value [9] was 2.3 fold, the “IFN-γ fold-change relative to vehicle control” value [10] was 3.5* fold and the “IL-2 fold-change relative to vehicle control” value [10] was 2.0* fold. The “TNF fold-change relative to vehicle control” value [10] was 2.3* fold, the “IFN-γ fold-change relative to vehicle control” value [11] was 8.8 fold and the “IL-2 fold-change relative to vehicle control” value [11] was 2.6 fold. The “TNF fold-change relative to vehicle control” value [11] was 4.0 fold, the “IFN-γ fold-change relative to vehicle control” value [12] was 8.8* fold and the “IL-2 fold-change relative to vehicle control” value [12] was 2.6* fold. For the same molecule, the “TNF fold-change relative to vehicle control” value [12] was 4.0* fold, the “IFN-γ, MRS/Veh: ratio in the presence vs. the absence of MRS-1754” value (donor 3) was 0.8* and the “IL-2, MRS/Veh: ratio in the presence vs. the absence of MRS-1754” value (donor 3) was 1.5*. For the same molecule, the “TNF, MRS/Veh: ratio in the presence vs. the absence of MRS-1754” value (donor 3) was 1.1, the “IFN-γ, ratio relative to vehicle control (Veh column)” value was 2.8 fold and the “IL-2, ratio relative to vehicle control (Veh column)” value was 2.9 fold. For the same molecule, the “TNF, ratio relative to vehicle control (Veh column)” value was 4.1 fold, the “IFN-γ, ratio relative to vehicle control (Veh column)” value (listed as Cmpd 10) was 2.8* fold and the “IL-2, ratio relative to vehicle control (Veh column)” value (listed as Cmpd 10) was 2.9* fold. For the same molecule, the “TNF, ratio relative to vehicle control (Veh column)” value (listed as Cmpd 10) was 4.1* fold, the “IFN-γ fold-change relative to vehicle control” value (donor 3, Cmpd 10 1 μM alone) was 1.2 fold and the “IL-2 fold-change relative to vehicle control” value (donor 3, Cmpd 10 1 μM alone) was 1.1 fold. For the same molecule, the “TNF fold-change relative to vehicle control” value (donor 3, Cmpd 10 1 μM alone) was 1.5 fold, the “TNF fold-change relative to vehicle control” value (donor 3, Cmpd 10 1 μM alone, listed as Cmpd 10) was 1.5* fold and the “IFN-γ, ratio relative to vehicle control (MRS)” value [13] was 2.2* fold. For the same molecule, the “IL-2, ratio relative to vehicle control (MRS column)” value [13] was 4.3 fold.
